Test results as given in PMC3004914, “Classification of Drugs Based on Properties of Sodium Channel Inhibition: A Comparative Automated Patch-Clamp Study” (PLoS ONE, 2010).
“And” between values parts separate entries of the source, which are not always exact repeats. Equal values may be shown once. Read-outs that look alike come from different tables or passages of the source.

Experiments:
[1] = target: T1, rNav1.2 sodium channels (HEK-293 cells) (Rattus norvegicus, UniProt P04775); test: 5 Hz train protocol, QPatch automated patch-clamp; assay type: cell-based; settings: for potency: in words;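 on UD (use-dependence of the inhibition): UD = (A3/A4)/(A1/A2) as ratios of peak amplitudes from Figure 1A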
Method in brief: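 rNav1.2 in stable HEK-293 cells, QPatch whole-cell; 5 Hz trains of five pulses from −90 to −10 mV, repeated every 20 s; 10 control trains, 10 with drug, then washout. Inhibition of peak current at a single concentration gave IC50; reversibility, use-dependence and τoff also derived.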

[2] = target: T1, rNav1.2 sodium channels (HEK-293 cells); test: steady-state inactivation protocol (availability curves), QPatch automated patch-clamp; assay type: cell-based
Method in brief: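 HEK-293 cells stably expressing rat Nav1.2, recorded by automated patch clamp in extracellular solution pH 7.3 containing CdCl2 and TEA. Availability measured with 400 ms pre-pulses from −150 to −30 mV, then a 10 ms test pulse to −10 mV. Kr, Ki (four-state model) and Kr/Ki state-dependence derived from inhibition and ΔV1/2.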

sodium channels [3] = settings: cited from earlier work
sodium channels [4] = settings: averaged literature data, cited from earlier work; for Ki: read-out: Ki−Lit; for Kd: read-out: Kr−Lit
[5] = human plasma, cited from earlier work
[6] = 300 μM, 3 s assigned where too short to be resolved
[7] = 300 μM, Rev = A5/A1 after washout
[8] = HEK293, read-out: IC50, calculated from Inh at single concentration 300 μM, −90 mV, 5 Hz train
[9] = HEK293, read-out: Inh (inhibited fraction)
[10] = HEK293, read-out: Inh (inhibited fraction) at holding potential −150 mV
[11] = arithmetic mean, 300 µM, read-out: Ki-Kapp arith
[12] = arithmetic mean, 300 µM, read-out: Ki-ΔV1/2 arith
[13] = arithmetic mean, 300 µM, read-out: Kr arith
[14] = geometric mean, from Inh at −150 mV, 300 µM, read-out: Kr (resting state affinity)
[15] = geometric mean, from apparent affinity, 300 µM, read-out: Ki−Kapp (inactivated state affinity)
[16] = geometric mean, from shift of availability curve, 300 µM, read-out: Ki−ΔV1/2 (inactivated state affinity)
[17] = 100 μM, 500 s assigned where irreversible
[18] = 100 μM, Rev = A5/A1 after washout
[19] = HEK293, 100 μM, −90 mV holding potential, 5 Hz train, read-out: Inh (inhibited fraction)
[20] = HEK293, calculated from Inh at single concentration 100 μM, −90 mV, 5 Hz train, read-out: IC50
[21] = HEK293, 100 µM, read-out: Inh (inhibited fraction) at holding potential −150 mV
[22] = arithmetic mean, 100 µM, read-out: Ki-Kapp arith
[23] = arithmetic mean, 100 µM, read-out: Ki-ΔV1/2 arith
[24] = arithmetic mean, 100 µM, read-out: Kr arith
[25] = geometric mean, from Inh at −150 mV, 100 µM, read-out: Kr (resting state affinity)
[26] = geometric mean, from apparent affinity, 100 µM, read-out: Ki−Kapp (inactivated state affinity)
[27] = geometric mean, from shift of availability curve, 100 µM, read-out: Ki−ΔV1/2 (inactivated state affinity)
[28] = HEK293, 300 μM, −90 mV holding potential, 5 Hz train, read-out: Inh (inhibited fraction)
[29] = HEK293, calculated from Inh at single concentration 300 μM, −90 mV, 5 Hz train, read-out: IC50
[30] = HEK293, 300 µM, read-out: Inh (inhibited fraction) at holding potential −150 mV

T1 sequence (P04775 whole entry): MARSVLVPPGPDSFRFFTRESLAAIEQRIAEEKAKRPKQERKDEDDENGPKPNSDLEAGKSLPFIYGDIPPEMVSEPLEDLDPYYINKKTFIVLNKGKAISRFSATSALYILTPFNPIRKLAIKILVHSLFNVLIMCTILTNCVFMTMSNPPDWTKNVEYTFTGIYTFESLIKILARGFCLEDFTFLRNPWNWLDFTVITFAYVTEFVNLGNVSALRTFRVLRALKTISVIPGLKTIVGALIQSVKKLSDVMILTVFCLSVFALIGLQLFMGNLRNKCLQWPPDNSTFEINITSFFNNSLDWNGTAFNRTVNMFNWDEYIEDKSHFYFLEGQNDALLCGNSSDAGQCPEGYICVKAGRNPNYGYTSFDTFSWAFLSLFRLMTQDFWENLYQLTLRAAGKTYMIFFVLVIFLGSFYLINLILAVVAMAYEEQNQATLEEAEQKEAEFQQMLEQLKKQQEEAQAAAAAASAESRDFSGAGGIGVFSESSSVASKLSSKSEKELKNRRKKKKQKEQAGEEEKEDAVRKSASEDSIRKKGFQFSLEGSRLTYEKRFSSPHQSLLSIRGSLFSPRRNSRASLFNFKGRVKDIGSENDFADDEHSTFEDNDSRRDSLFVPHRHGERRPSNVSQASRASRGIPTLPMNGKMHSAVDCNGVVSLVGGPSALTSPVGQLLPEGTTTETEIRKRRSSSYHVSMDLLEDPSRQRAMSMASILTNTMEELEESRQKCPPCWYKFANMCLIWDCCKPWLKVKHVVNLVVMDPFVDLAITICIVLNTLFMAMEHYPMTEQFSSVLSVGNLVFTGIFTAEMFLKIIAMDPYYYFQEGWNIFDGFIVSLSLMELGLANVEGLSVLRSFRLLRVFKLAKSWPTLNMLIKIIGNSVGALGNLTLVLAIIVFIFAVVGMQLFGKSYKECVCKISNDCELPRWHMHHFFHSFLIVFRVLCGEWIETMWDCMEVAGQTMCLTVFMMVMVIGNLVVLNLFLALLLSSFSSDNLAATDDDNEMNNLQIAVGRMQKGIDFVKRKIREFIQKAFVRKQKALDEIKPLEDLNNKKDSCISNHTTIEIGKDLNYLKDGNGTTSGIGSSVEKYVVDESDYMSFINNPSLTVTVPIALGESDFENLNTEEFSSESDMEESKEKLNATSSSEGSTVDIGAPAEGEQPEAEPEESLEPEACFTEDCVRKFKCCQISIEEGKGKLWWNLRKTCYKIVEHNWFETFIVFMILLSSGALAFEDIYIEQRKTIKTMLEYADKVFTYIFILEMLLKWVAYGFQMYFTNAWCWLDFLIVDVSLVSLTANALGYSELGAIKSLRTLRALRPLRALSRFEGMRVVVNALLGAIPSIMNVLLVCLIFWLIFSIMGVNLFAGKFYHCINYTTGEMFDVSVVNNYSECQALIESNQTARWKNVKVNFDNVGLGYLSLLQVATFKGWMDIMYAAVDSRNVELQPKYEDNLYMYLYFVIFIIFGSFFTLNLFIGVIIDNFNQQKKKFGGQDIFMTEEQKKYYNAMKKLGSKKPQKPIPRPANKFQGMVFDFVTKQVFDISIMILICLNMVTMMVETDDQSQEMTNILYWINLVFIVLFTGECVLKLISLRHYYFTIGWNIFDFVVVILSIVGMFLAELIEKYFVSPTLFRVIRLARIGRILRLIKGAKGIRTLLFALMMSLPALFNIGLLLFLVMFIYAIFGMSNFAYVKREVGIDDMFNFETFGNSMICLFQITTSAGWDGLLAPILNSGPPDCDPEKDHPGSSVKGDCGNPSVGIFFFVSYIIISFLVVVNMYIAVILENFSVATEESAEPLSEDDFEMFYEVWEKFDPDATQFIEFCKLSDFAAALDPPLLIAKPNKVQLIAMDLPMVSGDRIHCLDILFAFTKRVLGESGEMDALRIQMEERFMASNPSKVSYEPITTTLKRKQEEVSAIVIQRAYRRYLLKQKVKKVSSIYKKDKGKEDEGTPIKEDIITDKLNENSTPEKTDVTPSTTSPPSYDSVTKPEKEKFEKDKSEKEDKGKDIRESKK

inhibition at 100 µM [2, 21] [%] | Compound | τoff ([1]; 300 μM) [s] | τon [1, 6] [s] | UD (use-dependence of the inhibition) ([1]; 300 μM, 5 Hz train) | Rev (reversibility) [1, 7] | Ki [2, 11] [µM] | Ki [2, 12] [µM] | Kd [2, 13] [µM] | Kd [2, 14] [µM] | Ki [2, 15] [µM] | Ki [2, 16] [µM] | Ki (sodium channels [4]) [µM] | Kd (sodium channels [4]) [µM] | plasma conc. ([5]; as printed in each cell) | plasma conc. ([5]; as printed in the µg/ml cell) [µM] | ΔV1/2 (shift of availability curve) ([2]; 300 μM) [mV] | further results
– | CCN(CC)CC(=O)Nc1c(C)cccc1C [LID, Lidocaine] | 6 | 3 | 1.14 | 0.95 | 70.3 | 114 | 3340 | 3190 | 65.7 | 89.6 | – | – | – | – | – | potency estimated from few doses ([1]; HEK293, read-out: IC50, calculated from Inh at single concentration 100 μM, −90 mV, 5 Hz train): 1050 µM; potency estimated from few doses [1, 8]: 977 µM; potency estimated from few doses ([1]; HEK293, read-out: IC50, calculated from Inh at single concentration 1000 µM): 1270 µM; inhibition at 100 µM [1, 9]: 9%; inhibition at 300 µM [1, 9]: 23%; inhibition at 1000 µM [1, 9]: 44%; potency [1]: among the least potent SCIs; potency estimated from few doses ([1]; read-out: IC50, calculated from Inh at single concentration 300 μM, −90 mV, 5 Hz train): 1080 µM; inhibition at 300 µM [2, 10]: 9%; criterion of at least 60% inhibition at 10 µM concentration (sodium channels [3]): failed to fulfill this criteria
29 | CC12CC3CC(C)(C1)CC(N)(C3)C2 [MEM, Memantine] | – | – | – | – | – | – | – | – | – | – | 6.67 | 178 | 0.02 [53] µg/ml | 0.075 | – | τon ([1]; 100 μM): 3.51 s; UD (use-dependence of the inhibition) ([1]; 100 μM, 5 Hz train): 0.99; τoff [1, 17]: 8.98 s; Rev (reversibility) [1, 18]: 0.93; inhibition at 100 µM [1, 19]: 32%; potency estimated from few doses [1, 20]: 230 µM; ΔV1/2 (shift of availability curve) ([2]; 100 μM): −1.77 mV; Ki [2, 22]: 32.6 µM; Ki [2, 23]: 119 µM; Kd [2, 24]: 248 µM; Kd [2, 25]: 242 µM; Ki [2, 26]: 28.5 µM; Ki [2, 27]: 110 µM
– | NC(=O)N1c2ccccc2C=Cc2ccccc21 [CBZ, Carbamazepine] | 10.01 | 3 | 0.98 | 0.87 | 26.9 | 40.1 | 1180 | 1170 | 26.4 | 39.9 | 21.8 | 946 | 9.3 [44] µg/ml | 39.362 | −11.4 | inhibition at 300 µM [1, 28]: 29%; potency estimated from few doses [1, 29]: 718 µM; potency [1]: among the least potent SCIs; inhibition at 300 µM [2, 30]: 21%
– | Nc1nnc(-c2cccc(Cl)c2Cl)c(N)n1 [LTG, Lamotrigine] | 18.1 | 8.19 | 0.97 | 0.85 | 40.4 | 37.3 | 2330 | 2270 | 36.7 | 31.3 | 15.1 | 1560 | 2.5 [44] µg/ml | 9.762 | −10.3 | potency estimated from few doses [1, 8]: 905 µM; inhibition at 300 µM [1, 9]: 25%; inhibition at 300 µM [2, 10]: 12%; criterion of at least 60% inhibition at 10 µM concentration (sodium channels [3]): failed to fulfill this criteria
– | Cc1cccc(C)c1OCC(C)N (centres unmarked) [MEX, Mexiletine] | 12.93 | 8.6 | 1.39 | 0.78 | 19.2 | – | 662 | 638 | 17.9 | – | 12.4 | 395 | 2 [44] µg/ml | 9.271 | −10.3 | inhibition at 300 µM [1, 28]: 57%; potency estimated from few doses [1, 29]: 231 µM; inhibition at 300 µM [2, 30]: 32%; Ki ([2]; Ki-ΔV1/2 arith, arithmetic mean, 300 µM): 37.3 µM; Ki ([2]; Ki−ΔV1/2 (inactivated state affinity), geometric mean, from shift of availability curve, 300 µM): 26.8 µM
21 | Cc1ccc(C(=O)C(C)CN2CCCCC2)cc1 (centres unmarked) [TOL, Tolperisone] | – | – | – | – | – | – | – | – | – | – | 5.07 | 384 | 0.43 [57] µg/ml | 1.508 | – | τon ([1]; 100 μM): 5.57 s; UD (use-dependence of the inhibition) ([1]; 100 μM, 5 Hz train): 1.14; τoff [1, 17]: 7.42 s; Rev (reversibility) [1, 18]: 0.95; inhibition at 100 µM [1, 19]: 23%; potency estimated from few doses [1, 20]: 336 µM; ΔV1/2 (shift of availability curve) ([2]; 100 μM): −6.47 mV; Ki [2, 22]: 24.3 µM; Ki [2, 23]: 43.2 µM; Kd [2, 24]: 399 µM; Kd [2, 25]: 391 µM; Ki [2, 26]: 21 µM and 21.1 µM; Ki [2, 27]: 30.9 µM

Compound | inhibition at 100 µM [2, 21] [%] | τoff ([1]; 300 μM) [s] | τon [1, 6] [s] | UD (use-dependence of the inhibition) ([1]; 300 μM, 5 Hz train) | Rev (reversibility) [1, 7] | Ki [2, 11] [µM] | Ki [2, 12] [µM] | Kd [2, 13] [µM] | Kd [2, 14] [µM] | Ki [2, 15] [µM] | Ki [2, 16] [µM] | Ki (sodium channels [4]) [µM] | Kd (sodium channels [4]) [µM] | plasma conc. ([5]; as printed in each cell) | plasma conc. ([5]; as printed in the µg/ml cell) [µM] | ΔV1/2 (shift of availability curve) ([2]; 300 μM) [mV] | further results
Nc1nc2ccc(OC(F)(F)F)cc2s1 [RIL, Riluzole] | 22 | – | – | – | – | – | – | – | – | – | – | 0.49 | 62.4 | 0.17 [44] µg/ml | 0.739 | – | Rev (reversibility) [1]: 0.52; τon ([1]; 30 μM): 3.9 s; UD (use-dependence of the inhibition) ([1]; 30 μM, 5 Hz train): 0.95; τoff ([1]; 30 μM, 500 s assigned where irreversible): 17.6 s; use-dependence (UD) ([1]; 5 Hz train): no use-dependence; inhibition at 30 µM ([1]; HEK293, 30 μM, −90 mV holding potential, 5 Hz train, read-out: Inh (inhibited fraction)): 27%; potency estimated from few doses ([1]; HEK293, calculated from Inh at single concentration 30 μM, −90 mV, 5 Hz train, read-out: IC50): 81 µM; inhibition at 30 µM ([2]; HEK293, 30 µM, read-out: Inh (inhibited fraction) at holding potential −150 mV): 8%
